#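 Assay format: 96-well plates, 48-hour exposure. TGI denotes the concentration required for complete inhibition of growth.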
# Columns and labels:
# Test in all cases: inhibition of tumour cell growth, NCI panel, 48 h
# SK-MEL-2 melanoma = system: SK-MEL-2 melanoma
# NCI-H226 lung = system: NCI-H226 lung
# 786-0 renal = system: 786-0 renal
# KM12 colon = system: KM12 colon
# LOX IMVI melanoma = system: LOX IMVI melanoma
# OVCAR-4 ovarian = system: OVCAR-4 ovarian
# A498 renal = system: A498 renal
# NCI-H460 lung = system: NCI-H460 lung
# HT29 colon = system: HT29 colon
# NCI/ADR-RES ovarian = system: NCI/ADR-RES ovarian
# HOP-62 NSCLC = system: HOP-62 NSCLC
# SF-295 CNS = system: SF-295 CNS
# MCF7 breast = system: MCF7 breast
# K-562 leukemia = system: K-562 leukemia
# HCT-15 colon = system: HCT-15 colon
# UACC-257 melanoma = system: UACC-257 melanoma
# M14 melanoma = system: M14 melanoma
# T-47D breast = system: T-47D breast
structure (smiles),measurement,setting,value
COc1ccc(CNc2ccn(C3OC(CO)C(O)C3O)c(=O)n2)cc1 (stereo not drawn),TGI,SK-MEL-2 melanoma,> 100 µM
same,TGI,NCI-H226 lung,> 100 µM
same,TGI,786-0 renal,> 100 µM
same,TGI,KM12 colon,> 100 µM
same,TGI,LOX IMVI melanoma,> 100 µM
same,TGI,OVCAR-4 ovarian,> 100 µM
same,TGI,A498 renal,> 100 µM
same,TGI,NCI-H460 lung,> 100 µM
same,TGI,HT29 colon,> 100 µM
same,TGI,NCI/ADR-RES ovarian,> 100 µM
same,TGI,HOP-62 NSCLC,> 100 µM
same,TGI,SF-295 CNS,> 100 µM
same,TGI,MCF7 breast,> 100 µM
same,TGI,K-562 leukemia,> 100 µM
same,TGI,HCT-15 colon,> 100 µM
same,TGI,UACC-257 melanoma,> 100 µM
same,TGI,M14 melanoma,> 100 µM
same,TGI,T-47D breast,94.7 µM

# Reference: PubChem BioAssay (NCI)
